Test results from US20160376605A1, “WHEAT PLANTS HAVING INCREASED TOLERANCE TO IMIDAZOLINONE HERBICIDES” (BASF SE, priority 2003, published 2016).

Tests used:
susceptible durum wheat = test: Imazamox rate killing susceptible wheat; format: in vivo
Procedure: Nine M4:6 lines derived from four M2 plants (C119, C132, C137, CO12) were evaluated in a replicated trial at one location in a durum growing area in Italy. 75 g/ha of imazamox was applied to BBCH growth stage 21-25 plants. A rate of 35 g/ha would typically result in virtually 100% mortality of susceptible wheat. Percent crop response (overall injury) varied from 0 to 13% 21 days after treatment (DAT), and from 0 to 17% 43 DAT. Yield as a percent of the same line untreated varied from 85% to 102%.
(§1) All tested lines survived at both rates of herbicide treatment, whereas all plants of the wild type were killed at both rates. Based on comparison to the wild type line, all lines tested expressed considerable tolerance to the applied rates, particularly when looking at height reduction relative to untreated plots. A rate of 35 g/ha imazamox is adequate to kill susceptible durum wheat.
A rate of 35 g/ha imazamox is adequate to kill susceptible Durum wheat.

[1] = test system: AHAS of M2-derived imidazolinone herbicide tolerant lines; test: In vitro AHAS activity, tolerant lines overall; format: biochemical, Durum wheat; details: highest concentration of imazamox (100 uM), 'generally'
Description: The in vitro activity of AHAS enzyme extracted from the plant can be measured biochemically. […] Even at relatively low concentrations, AHAS activity falls off rapidly.
Table 3 also contains AHAS activity data for several M2-derived imidazolinone herbicide tolerant lines.

[2] = test system: Durum wheat M3:4 lines derived from M2 plant UT08; test: Field Trials (2): tolerance scores at two rates of imazamox; format: in vivo; details: UT08, range across M3:4 lines
Description: (§2) One hundred ten M3:4 lines derived from sixteen M2 plants were screened at 71 g/ha and 160 g/ha imazamox. The number of M4 lines per M2 plant varied from one to twenty. Tolerance of M3:4 lines was compared to untreated plots of the same line as well as to treated plots of a wild-type cultivar from which some of them were derived.
as §1

[3] = test system: Durum wheat M3:4 lines derived from M2 plant UT19; test: as above; format: in vivo; details: UT19, range across M3:4 lines
Description: as §2, §1

[4] = test system: Durum wheat M3:4 lines derived from M2 plant UT10; test: as above; format: in vivo; details: UT10, range across M3:4 lines
Description: as §2, §1

[5] = test system: Durum wheat M3:4 lines derived from M2 plant UT01; test: as above; format: in vivo; details: UT01, range across M3:4 lines
Description: as §2, §1

[6] = test system: Durum wheat M3:4 lines derived from M2 plant UT17; test: as above; format: in vivo; details: UT17, range across M3:4 lines
Description: as §2, §1

[7] = test system: Durum wheat M3:4 lines derived from M2 plant UT15; test: as above; format: in vivo; details: UT15, range across M3:4 lines
Description: as §2, §1

[8] = test system: Durum wheat M3:4 lines derived from M2 plant UT14; test: as above; format: in vivo; details: UT14, range across M3:4 lines
Description: as §2, §1

[9] = test system: Durum wheat M3:4 lines derived from M2 plant UT03; test: as above; format: in vivo; details: UT03, range across M3:4 lines
Description: as §2, §1

[10] = test system: Durum wheat M3:4 lines derived from M2 plant UT12; test: as above; format: in vivo; details: UT12, range across M3:4 lines
Description: as §2, §1

[11] = test system: Wild Type durum wheat cultivar; test: as above; format: in vivo; details: for % Chlorosis / % Height Reduction: Wild Type
Description: as §2, §1

SMILES: COCc1cnc(C2=NC(C)(C(C)C)C(=O)N2)c(C(=O)O)c1 (centres unmarked) [imazamox]
- rate adequate to kill susceptible durum wheat (susceptible durum wheat; imazamox application rate): 35 g/ha
- mortality at 35 g/ha (susceptible durum wheat; read-out: mortality of susceptible wheat): ~100%
- AHAS activity relative to that of the control [1]: one third to one half
- % Chlorosis ([2]; imazamox 71 g/ha, 14 DAT): 0-10%
- % Height Reduction ([2]; imazamox 71 g/ha, 14 DAT): 0-10%
- % Chlorosis ([2]; imazamox 71 g/ha, 30 DAT): 0-10%
- % Height Reduction ([2]; imazamox 71 g/ha, 30 DAT): 0-10%
- % Chlorosis ([2]; imazamox 160 g/ha, 14 DAT): 0-10%
- % Height Reduction ([2]; imazamox 160 g/ha, 14 DAT): 0-10%
- % Chlorosis ([2]; imazamox 160 g/ha, 30 DAT): 0-15%
- % Chlorosis ([3]; imazamox 71 g/ha, 14 DAT): 30-40%
- % Height Reduction ([3]; imazamox 71 g/ha, 14 DAT): 0-10%
- % Chlorosis ([3]; imazamox 71 g/ha, 30 DAT): 0%
- % Height Reduction ([3]; imazamox 71 g/ha, 30 DAT): 5-20%
- % Chlorosis ([3]; imazamox 160 g/ha, 14 DAT): 40%
- % Height Reduction ([3]; imazamox 160 g/ha, 14 DAT): 0-10%
- % Chlorosis ([3]; imazamox 160 g/ha, 30 DAT): 0-5%
- % Height Reduction ([3]; imazamox 160 g/ha, 30 DAT): 10-20%
- % Chlorosis ([4]; imazamox 71 g/ha, 14 DAT): 5-10%
- % Height Reduction ([4]; imazamox 71 g/ha, 14 DAT): 0-10%
- % Chlorosis ([4]; imazamox 71 g/ha, 30 DAT): 5%
- % Height Reduction ([4]; imazamox 71 g/ha, 30 DAT): 0-5%
- % Chlorosis ([4]; imazamox 160 g/ha, 14 DAT): 10%
- % Height Reduction ([4]; imazamox 160 g/ha, 14 DAT): 0-20%
- % Chlorosis ([4]; imazamox 160 g/ha, 30 DAT): 5%
- % Height Reduction ([4]; imazamox 160 g/ha, 30 DAT): 0-10%
- % Chlorosis ([5]; imazamox 71 g/ha, 14 DAT): 0-10%
- % Height Reduction ([5]; imazamox 71 g/ha, 14 DAT): 0%
- % Chlorosis ([5]; imazamox 71 g/ha, 30 DAT): 0%
- % Height Reduction ([5]; imazamox 71 g/ha, 30 DAT): 0-10%
- % Chlorosis ([5]; imazamox 160 g/ha, 14 DAT): 1-10%
- % Height Reduction ([5]; imazamox 160 g/ha, 14 DAT): 0%
- % Chlorosis ([5]; imazamox 160 g/ha, 30 DAT): 0-5%
- % Height Reduction ([5]; imazamox 160 g/ha, 30 DAT): 0-20%
- % Chlorosis ([6]; imazamox 71 g/ha, 14 DAT): 5-20%
- % Height Reduction ([6]; imazamox 71 g/ha, 14 DAT): 0-20%
- % Chlorosis ([6]; imazamox 71 g/ha, 30 DAT): 0%
- % Height Reduction ([6]; imazamox 71 g/ha, 30 DAT): 5-20%
- % Chlorosis ([6]; imazamox 160 g/ha, 14 DAT): 5-30%
- % Height Reduction ([6]; imazamox 160 g/ha, 14 DAT): 0-30%
- % Chlorosis ([6]; imazamox 160 g/ha, 30 DAT): 0-5%
- % Height Reduction ([6]; imazamox 160 g/ha, 30 DAT): 5-30%
- % Chlorosis ([7]; imazamox 71 g/ha, 14 DAT): 30-70%
- % Height Reduction ([7]; imazamox 71 g/ha, 14 DAT): 0-10%
- % Chlorosis ([7]; imazamox 71 g/ha, 30 DAT): 0-10%
- % Height Reduction ([7]; imazamox 71 g/ha, 30 DAT): 5-20%
- % Chlorosis ([7]; imazamox 160 g/ha, 14 DAT): 30-70%
- % Height Reduction ([7]; imazamox 160 g/ha, 14 DAT): 0-10%
- % Chlorosis ([7]; imazamox 160 g/ha, 30 DAT): 0-15%
- % Height Reduction ([7]; imazamox 160 g/ha, 30 DAT): 5-30%
- % Chlorosis ([8]; imazamox 71 g/ha, 14 DAT): 5-10%
- % Height Reduction ([8]; imazamox 71 g/ha, 14 DAT): 0%
- % Chlorosis ([8]; imazamox 71 g/ha, 30 DAT): 0%
- % Height Reduction ([8]; imazamox 71 g/ha, 30 DAT): 0-10%
- % Chlorosis ([8]; imazamox 160 g/ha, 14 DAT): 10%
- % Height Reduction ([8]; imazamox 160 g/ha, 14 DAT): 0-10%
- % Chlorosis ([8]; imazamox 160 g/ha, 30 DAT): 0%
- % Height Reduction ([8]; imazamox 160 g/ha, 30 DAT): 0-10%
- % Chlorosis ([9]; imazamox 71 g/ha, 14 DAT): 0%
- % Height Reduction ([9]; imazamox 71 g/ha, 14 DAT): 10%
- % Chlorosis ([9]; imazamox 71 g/ha, 30 DAT): 5%
- % Height Reduction ([9]; imazamox 71 g/ha, 30 DAT): 5%
- % Chlorosis ([9]; imazamox 160 g/ha, 14 DAT): 5%
- % Height Reduction ([9]; imazamox 160 g/ha, 14 DAT): 10%
- % Chlorosis ([9]; imazamox 160 g/ha, 30 DAT): 5%
- % Height Reduction ([9]; imazamox 160 g/ha, 30 DAT): 5%
- % Chlorosis ([10]; imazamox 71 g/ha, 14 DAT): 0-10%
- % Height Reduction ([10]; imazamox 71 g/ha, 14 DAT): 0-10%
- % Chlorosis ([10]; imazamox 71 g/ha, 30 DAT): 0-5%
- % Height Reduction ([10]; imazamox 71 g/ha, 30 DAT): 0-10%
- % Chlorosis ([10]; imazamox 160 g/ha, 14 DAT): 10-15%
- % Height Reduction ([10]; imazamox 160 g/ha, 14 DAT): 10-20%
- % Chlorosis ([10]; imazamox 160 g/ha, 30 DAT): 5-10%
- % Height Reduction ([10]; imazamox 160 g/ha, 30 DAT): 5-10%
- % Chlorosis ([11]; imazamox 71 g/ha, 14 DAT): 90%
- % Height Reduction ([11]; imazamox 71 g/ha, 14 DAT): 100%
- % Chlorosis ([11]; imazamox 71 g/ha, 30 DAT): 100%
- % Height Reduction ([11]; imazamox 71 g/ha, 30 DAT): 100%
- % Chlorosis ([11]; imazamox 160 g/ha, 14 DAT): 90%
- % Height Reduction ([11]; imazamox 160 g/ha, 14 DAT): 100%
- % Chlorosis ([11]; imazamox 160 g/ha, 30 DAT): 100%
- % Height Reduction ([11]; imazamox 160 g/ha, 30 DAT): 100%
- survival of wild type plants ([11]; imazamox 71 g/ha and 160 g/ha (both rates), all plants of the wild type): killed
